# Measured values from patent US10166253B2, “Positively charged co-polymers for use as antimicrobial agents” (priority 2014, dated 2019).
# Experiments:
# [1] = tested on: E. coli (NCTC 10418); assay: Binding of Alexa Fluor 488-labeled GA to bacteria (MFI by flow cytometry); design: species or system Escherichia coli; settings: PBS + 50 mM NaCl, total salt 200 mM, GA 50 and 10 μg/ml
# Experimental: GA was diluted in freshly made 0.1 M NaHCO3 and labeled with Alexa Fluor 488 according to manufacturer's instruction. Late-log phase E. coli (strain NCTC 10418), P. aeruginosa (strain PAO1, ATCC 15692) and S. aureus (Wood 46, NCTC 7121) were resuspended in PBS or PBS supplemented with 50 mM NaCl; treated with either 50 μg/ml or 10 μg/ml Alexa Fluor® 488-labeled GA and incubated on a shaker at 37° C. for 30 minutes. Hereafter, bacteria were diluted 1:100 in PBS and analyzed on a Novocyte™ flow cytometer.
# This constitutes a problem when for example treating patients with cystic fibrosis. These patients have a high salt concentration in their lungs of about 150-200 mM, and it is therefore critical that drugs used for treating these patients are active at such high salt concentrations (Gilljam H et al., Scand J Clin Lab Invest. 1989 April; 49(2):121-4). Therefore, the binding capacity of GA to bacteria resuspended in PBS or in PBS supplemented with 50 mM NaCl. PBS+50 mM NaCl results in a total salt concentration of 200 mM. […]
# Mean Fluorescence intensities (MFI) were assessed by flow cytometry to quantify the binding capacity of GA to the bacterial membrane. […]
# [2] = tested on: E. coli (strain NCTC 10418); assay: Colony-forming unit (CFU) counting; type: cell-based, Escherichia coli; settings: 30 minutes at 37° C. in PBS, even at 2 μg/ml
# Experimental: Late-log phase E. coli (strain NCTC 10418), P. aeruginosa (strain PAO1, ATCC 15692) and S. aureus (Wood 46, NCTC 7121) were resuspended in PBS and treated with different concentrations of glatiramer acetate (GA) or LL-37 (Innovagen, Lund, Sweden) and incubated on a shaker for 30 minutes at 37° C. Subsequently, a dilution series was performed to achieve a suitable amount of bacteria on the 5% blood agar plates. The 5% blood agar streak plates were cultured at 37° C. for 16 h and the resulting CFUs on the blood agar plates were imaged with a digital camera and counted with the aid of the software ImageJ 1.48v.
# [3] = tested on: E. coli (NCTC 10418); assay: Antimicrobial susceptibility testing (MIC) by the oCelloScope system; type: cell-based, Escherichia coli; settings: CAMHBT broth, SESA growth curves
# Experimental: E. coli (strain NCTC 10418) and S. aureus (Wood 46, NCTC 7121) were grown overnight in Sensititre® cation-adjusted Mueller-Hinton broth with TES (CAMHBT, TREK Diagnostic System). Bacterial cell suspensions were adjusted to 0.5 McFarland standard using a nephelometer. Subsequently, bacteria were diluted in CAMHBT according to the recommended final inoculum size for broth dilution (5×10^5 colony-forming units (CFU) ml^−1) (Wiegand, I., K. Hilpert, and R. E. Hancock, Agar and broth dilution methods to determine the minimal inhibitory concentration (MIC) of antimicrobial substances. Nat Protoc, 2008. 3(2): p. 163-75) and analyzed in Nunc Edge 96-well plates by the oCelloScope system.
# The oCelloScope is a digital time-lapse microscopy technology that scans through a fluid sample generating series of images as described in 2013 by Fredborg et al. (Fredborg, M., et al., Real-time optical antimicrobial susceptibility testing. J Clin Microbiol, 2013. 51(7): p. 2047-53). As a result of the tilted imaging plane, the images recorded by the oCelloScope system constitute a parallelepipedum that forms the image stack. […] Growth kinetics was determined by image stack processing based on contrast based Segmentation and Extraction of Surface Area (SESA). […]
# The effect of GA on bacterial growth was further evaluated using, an optical screening system (oCelloScope) (FIG. 6). […]
# [4] = tested on: S. aureus (Wood 46, NCTC 7121); assay: Antimicrobial susceptibility testing by flow cytometry-based assay (LIVE/DEAD BacLight, Syto9/PI); type: cell-based, Staphylococcus aureus; settings: 30 minutes
# Experimental: (§1) E. coli (strain NCTC 10418), P. aeruginosa (Strain PAO1) and S. aureus (Wood 46, NCTC 7121) cells were grown in 5 mL of Todd Hewitt Broth medium (THB; Sigma-Aldrich). Bacteria were cultivated at 37° C. for 15 h in a 15 mL tube to obtain late-log phase cultures. Bacterial cultures were pelleted at 3096 g for 10 minutes; the supernatant was discarded and bacteria were resuspended in phosphate-buffered saline (PBS) supplemented with 40 mg/ml human albumin to mimic chemical properties of blood. Bacteria were diluted to a standardized inoculum of 10^9 CFU/mL.
# (§2) Bacteria were treated with GA, LL-37, Piperacillin/Tazobactam or Vancomycin in varying concentrations, i.e. 50, 25, 10 or 2 μg/ml, for 30 minutes. As a positive control, bacteria were treated with 7% isopropanol. Hereafter, bacteria were pelleted at 3096 g for 10 minutes; the supernatant was discarded and bacteria were resuspended in PBS. The antimicrobial effect was tested in a well-established and widely used flow cytometry-based assay (LIVE/DEAD® BacLight™ Bacterial Viability and Counting Kit (L34856), Molecular Probes/Invitrogen) according to manufacturer's manual.
# (§3) For each bacteria, the flow cytometry-based assay was repeated four times.
# [5] = tested on: P. aeruginosa (Strain PAO1); assay: as above; type: cell-based
# Experimental: as §1, §2, §3
# The antibacterial effect of GA on the gram-negative strain P. aeruginosa was tested by carrying out an experiment as described in Example 1. […] Although the untreated control stained positive for PI, this seemed to be explained by the capability of intact P. aeruginosa to secrete large quantities of DNA to the extracellular milieu.
# [6] = within the 30 minutes of treatment
substance,measurement,setting,value
Glatiramer acetate [GA],"binding capacity to bacteria (MFI, in words)",[1],retained its binding capacity
same,antibacterial effect by CFU counting (in words),[2],enhanced ability to kill E. coli
same,MIC,[3],31 µg/mL
same,percentage of bacteria testing positive for PI,[4],12.1%
same,antimicrobial activity (in words),[5]; [6],more potent than when treating bacteria with 7% isopropanol
same,decreased bacterial inoculum,[5]; [6],~75%
same,increased PI positivity,[5]; within the 30 minutes of treatment (FIG. 4 overview),~50%
